# Test system: not listed separately
# Experiment: Pharmacokinetic determination in mice (plasma)
# Type: in vivo, C57BL/6J mice
# Settings: C57 mice, PO administration, 5 mpk
# Experimental: C57BL/6J mice were used as test animals to study the pharmacokinetic behavior of the compounds of the present disclosure in mice (plasma) after oral and intravenous administration.
# C57 mice, male, purchased from Shanghai Bk Lab Animal Co., Ltd., with animal production license number (SCXK (Shanghai) 2013-0006 NO.311620400001794).
# • Preparation of oral drug: 10% Solutol HS15
# 10 g of Solutol HS15 solid was weighed, dissolved in 90 mL of pure water, uniformly mixed, stirred, and ultrasonically treated to form a clear solution.
# The compound of the present disclosure was weighed and dissolved in this solution, uniformly shaken, and ultrasonically treated for 15 minutes to obtain a colorless clear solution with a concentration of 0.5 mg/mL. • Preparation of intravenous drug: 5% DMSO+10% Solutol HS15+85% PBS […]
# 3 male C57 mice were fasted overnight and then respectively administered PO at a dose of 5 mg/kg and a volume of 10 mL/kg. […]
# Before and after administration of mice, 0.04 mL of blood was collected from the orbit at 0.083 (iv), 0.25, 0.5, 1, 2, 4, 8, and 24 hours, and placed in EDTA-K2 test tubes, which was centrifuged at 6000 rpm at 4° C. for 6 min to separate plasma which was stored at −80° C.; and the […] were fed 4 h after administration.
# The final determination results were obtained by using an LCMS/MS method.
# The main pharmacokinetic parameters were calculated using WinNonlin 6.1.
Area under the curve AUC0-∞ [ng·h/mL],Half-life t1/2 [h],Mean residence time MRT [h],Plasma concentration Cmax [ng/mL],Time to peak tmax [h],SMILES
10873,4.0,3.7,4307,0.5,O=C1c2cccnc2CN1c1ccc(N[C@H]2CC[C@H](Nc3ncc(C4CC4)cn3)C2)nc1 [Example 128]
–,–,–,–,0.25,"Cc1ccn2nc(N[C@H]3CC[C@H](Nc4ccc(-n5ccccc5=O)cn4)C3)nc2c1 [Example 87, 6′-(((1S,3S)-3-((7-methyl-[1,2,4]triazolo[1,5-a]pyridin-2-yl)amino)cyclopentyl)amino)-2H-[1,3′-bipyridinyl]-2-one]"

# Same assay, conditions: male, C57BL/6J, mouse, 5 mg/kg, C57 mice, PO administration, 5 mpk, read-out: Area under the curve AUC0-∞
row,AUC(0-inf) [ng·h/mL],SMILES
1,10700,"Cc1ccn2nc(N[C@H]3CC[C@H](Nc4ccc(-n5ccccc5=O)cn4)C3)nc2c1 [Example 87, 6′-(((1S,3S)-3-((7-methyl-[1,2,4]triazolo[1,5-a]pyridin-2-yl)amino)cyclopentyl)amino)-2H-[1,3′-bipyridinyl]-2-one]"

# Same assay, conditions: male, C57BL/6J, mouse, 5 mg/kg, C57 mice, PO administration, 5 mpk, read-out: Half-life t1/2 (converted)
row,half-life [h],SMILES
1,4.7,"Cc1ccn2nc(N[C@H]3CC[C@H](Nc4ccc(-n5ccccc5=O)cn4)C3)nc2c1 [Example 87, 6′-(((1S,3S)-3-((7-methyl-[1,2,4]triazolo[1,5-a]pyridin-2-yl)amino)cyclopentyl)amino)-2H-[1,3′-bipyridinyl]-2-one]"

# Same assay, conditions: male, C57BL/6J, mouse, 5 mg/kg, C57 mice, PO administration, 5 mpk, read-out: Mean residence time MRT
row,MRT [h],SMILES
1,3.1,"Cc1ccn2nc(N[C@H]3CC[C@H](Nc4ccc(-n5ccccc5=O)cn4)C3)nc2c1 [Example 87, 6′-(((1S,3S)-3-((7-methyl-[1,2,4]triazolo[1,5-a]pyridin-2-yl)amino)cyclopentyl)amino)-2H-[1,3′-bipyridinyl]-2-one]"

# Same assay, conditions: male, C57BL/6J, mouse, 5 mg/kg, C57 mice, PO administration, 5 mpk, read-out: Plasma concentration Cmax
row,Cmax [ng/mL],SMILES
1,5510,"Cc1ccn2nc(N[C@H]3CC[C@H](Nc4ccc(-n5ccccc5=O)cn4)C3)nc2c1 [Example 87, 6′-(((1S,3S)-3-((7-methyl-[1,2,4]triazolo[1,5-a]pyridin-2-yl)amino)cyclopentyl)amino)-2H-[1,3′-bipyridinyl]-2-one]"

# Target: PCSK9 secreted by HepG2 cells (Homo sapiens (Human), UniProt Q8NBP7)
# Sequence (Q8NBP7 153-692): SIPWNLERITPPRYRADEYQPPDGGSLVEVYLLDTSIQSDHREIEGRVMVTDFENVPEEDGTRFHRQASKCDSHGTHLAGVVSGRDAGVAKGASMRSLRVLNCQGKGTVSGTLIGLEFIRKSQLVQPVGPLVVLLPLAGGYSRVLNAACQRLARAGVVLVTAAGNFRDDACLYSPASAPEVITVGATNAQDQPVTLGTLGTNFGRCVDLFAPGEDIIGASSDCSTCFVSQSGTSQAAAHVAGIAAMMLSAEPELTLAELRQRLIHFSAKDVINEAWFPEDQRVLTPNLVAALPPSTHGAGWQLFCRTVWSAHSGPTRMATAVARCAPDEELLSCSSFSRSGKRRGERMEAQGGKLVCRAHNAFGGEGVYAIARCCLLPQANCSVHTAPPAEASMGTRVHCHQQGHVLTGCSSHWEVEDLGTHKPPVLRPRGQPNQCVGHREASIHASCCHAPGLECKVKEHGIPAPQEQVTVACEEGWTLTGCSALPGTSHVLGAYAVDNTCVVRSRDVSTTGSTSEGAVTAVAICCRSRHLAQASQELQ
# Sequence (Q8NBP7 31-152 partner): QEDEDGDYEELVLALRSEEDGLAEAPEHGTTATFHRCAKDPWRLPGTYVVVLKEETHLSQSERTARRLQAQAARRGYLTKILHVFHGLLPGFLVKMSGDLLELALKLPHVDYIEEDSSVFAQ
# Experiment: Effect on the concentration of PCSK9 secreted by HepG2 cells (ELISA)
# Type: cell-based
# Settings: 48 hours incubation, read-out: Inhibitory activity on PCSK9, IC50
# Description: • 1. Experimental objective: To detect the inhibitory effect of the compounds on PCSK9. • 2. Experimental instruments and reagents: • 2.1 Instruments:
# • CircuLex Human PCSK9 ELISA kit (MBL: CY-8079); • DMEM (Gibco: 31966-021) • FBS (Sigma: S5394) • Compound plate (Thermo: 1353506) • Complete culture medium: DMEM+10% FBS+1×P/S; • Experimental culture medium: DMEM+10% FBS • Cell strain: HepG2 (ATCC: HB-8065)
# A self-adhesive seal was applied, the plate was placed on a plate shaker at room temperature, gently shaken, uniformly mixed, and incubated for 1 hour. • 11) The plate was placed on the plate washer, the washing liquid was set to 350 μL per well, and the plate was washed 4 times repeatedly. • 12) 100 μL/well of an HRP-conjugated detection antibody was added, a self-adhesive seal was applied, and the plate was placed on the plate shaker, well mixed uniformly, and incubated for 1 hour. • 13) The plate was placed on the plate washer, the washing liquid was set to 350 μL per well, and the plate was washed 4 times repeatedly. • 14) 100 μL/well of Substrate reagent was added, and the plate was placed in the dark, applied with a self-adhesive seal, placed on the plate shaker, well mixed uniformly, and incubated for 10-20 minutes. • 15) 100 μL/well of Stop solution (1N H2SO4) was added and mixed uniformly. • 16) The optical density (OD) value in each well was measured in sequence at a wavelength of 450 nm by the microplate reader. Detection was carried out within 30 min after the reaction was stopped.
# After the OD values were read by the microplate reader, the OD value of the 0-concentration standard in the standard group was subtracted from the OD values of the standards, control group, and samples to obtain the actual OD values for these wells. A standard curve was plotted with Graphpad and the concentration of the sample was calculated. If the dilution was performed during the sample detection, the calculated sample concentration was necessarily multiplied by the corresponding dilution ratio in the final calculation, which was the actual concentration of the sample. Inhibition rate=(actual concentration in control-actual concentration in sample)/actual concentration in control*100. According to the inhibition rates corresponding to the different concentrations, IC50 was derived by Graphpad.
row,SMILES,IC50 [µM]
1,O=C1c2cc(F)cnc2CN1c1ccc(N[C@H]2CC[C@H](Nc3ncc(OC(F)F)cn3)C2)nc1 [Example 137],7.4
2,"O=C1c2cc(C(F)(F)F)ncc2CN1c1ccc(N[C@H]2CC[C@H](Nc3ncc(OC(F)F)cn3)C2)nc1 [Example 138, 2-(6-(((1S,3S)-3-((5-(difluoromethoxy)pyrimidin-2-yl)amino)cyclopentyl)amino)pyridin-3-yl)-6-trifluoromethyl-2,3-dihydro-1H-pyrrolo[3,4-c]pyridin-1-one]",0.5
3,CC1(C)CCN(c2ccc(N[C@H]3CC[C@H](Nc4ncc(OC(F)F)cn4)C3)nc2)S1(=O)=O [Example 119],17.4
4,CC1(C)C(=O)N(c2ccc(N[C@H]3CC[C@H](Nc4ncc(OC(F)F)cn4)C3)nc2)c2cccnc21 [Example 150],14.4
5,"CC(C)(O)c1cccn(-c2ccc(N[C@H]3CC[C@H](Nc4ncc(OC(F)F)cn4)C3)nc2)c1=O [Example 64, 6′-(((1S,3S)-3-((5-(difluoromethoxy)pyrimidin-2-yl)amino)cyclopentyl)amino]-3-(2-hydroxyprop-2-yl)-2H-[1,3′-bipyridinyl]-2-one]",10
6,CC1(C)CCCN(c2ccc(N[C@H]3CC[C@H](Nc4ncc(OC(F)F)cn4)C3)nc2)S1(=O)=O [Example 120],13.5
7,O=S1(=O)c2ncccc2CN1c1ccc(N[C@H]2CC[C@H](Nc3ncc(OC(F)F)cn3)C2)nc1 [Example 121],27.3
8,"Cc1cnn2c(-c3ccc(N[C@H]4CC[C@H](Nc5ncc(OC(F)F)cn5)C4)nc3)cccc12 [Example 117, (1S,3S)—N1-(5-(difluoromethoxy)pyrimidin-2-yl)-N3-(5-(3-methylpyrazolo[1,5-a]pyridin-7-yl)pyridin-2-yl)cyclopentane-1,3-diamine]",3.6
9,"N#Cc1cnn2c(-c3ccc(N[C@H]4CC[C@H](Nc5ncc(OC(F)F)cn5)C4)nc3)ccnc12 [Example 118, 7-(6-(((1S,3S)-3-((5-(difluoromethoxy)pyrimidin-2-yl)amino)cyclopentyl)amino)pyridin-3-yl) pyrazolo[1,5-a]pyrimidine-3-carbonitrile]",0.5
10,"O=c1c(-c2ccc(N[C@H]3CC[C@H](Nc4ncc(OC(F)F)cn4)C3)nc2)cnc2ccccn12 [Example 108, 3-(6-(((1S,3S)-3-((5-(difluoromethoxy)pyrimidin-2-yl)amino)cyclopentyl)amino)pyridin-3-yl)-4H-pyridino[1,2-a]pyrimidin-4-one]",3.8
11,"O=S1(=O)CCCN1c1ccc(N[C@H]2CC[C@H](Nc3ncc(OC(F)F)cn3)C2)nc1 [Example 91, 2-(6-(((1S,3S)-3-((5-(difluoromethoxy)pyrimidin-2-yl)amino)cyclopentyl)amino)pyridin-3-yl)-1,1-dioxoisothiazolane]",21.8
12,"O=c1n(-c2ccc(N[C@H]3CC[C@H](Nc4ncc(OC(F)F)cn4)C3)nc2)c2nccnc2n1C1CC1 [Example 97, 1-Cyclopropyl-3-(6-(((1S,3S)-3-((5-(difluoromethoxy)pyrimidin-2-yl)amino)cyclopentyl)amino)pyridin-3-yl)-1,3-dihydro-2H-imidazo[4,5-b]pyrazin-2-one]",11.6
13,"FC(F)Oc1cnc(N[C@H]2CC[C@H](Nc3ccc(-c4cccc5ncnn45)cn3)C2)nc1 [Example 139, (1S,3S)—N1-(5-([1,2,4]triazolo[1,5-a]pyridin-5-yl)pyridin-2-yl)-N3-(5-(difluoromethoxy)pyrimidin-2-yl)cyclopentane-1,3-diamine]",10.4

# Other lines, results leading:
row,IC50 [µM],SMILES
1,7.9,O=C1c2cccnc2CN1c1ccc(N[C@H]2CC[C@H](Nc3ncc(C4CC4)cn3)C2)nc1 [Example 128]
2,13.2,"O=S1(=O)c2ncccc2CN1c1ccc(N[C@H]2CC[C@H](Nc3ncc(C(F)(F)F)nn3)C2)nc1 [Example 154, 2-(6-(((1S,3S)-3-((6-(trifluoromethyl)-1,2,4-triazin-3-yl)amino)cyclopentyl)amino)pyridin-3-yl)-2,3-dihydroisothiazolo[5,4-b]pyridine 1,1-dioxide]"
3,3.3,"O=C1c2cccnc2CN1c1ccc(N[C@H]2CC[C@H](Nc3ncc(OC(F)(F)Br)cn3)C2)nc1 [Example 123, 6-(6-(((1S,3S)-3-((5-(bromodifluoromethoxy)pyrimidin-2-yl)amino)cyclopentyl)amino)pyridin-3-yl)-6,7-dihydro-5H-pyrrolo[3,4-b]pyridin-5-one]"
4,14.2,"O=c1ccccn1-c1ccc(N[C@H]2CC[C@H](Nc3nsc(C4CC4)n3)C2)nc1 [Example 78, 6′-(((1S,3S)-3-((5-cyclopropyl-1,2,4-thiadiazol-3-yl)amino)cyclopentyl)amino)-2H-[1,3′-bipyridinyl]-2-one]"
5,6.2,Cc1cc2c(cn1)CN(c1ccc(N[C@H]3CC[C@H](Nc4ncc(C5CC5)nn4)C3)nc1)C2=O [Example 160]
6,12,"O=C1c2ncc(F)cc2CN1c1ccc(N[C@H]2CC[C@H](Nc3nc4cc(C(F)(F)F)ccn4n3)C2)nc1 [Example 163, 3-Fluoro-6-(6-(((1S,3S)-3-((7-(trifluoromethyl)-[1,2,4]triazolo[1,5-a]pyridin-2-yl)amino)cyclopentyl)amino)pyridin-3-yl)-5,6-dihydro-7H-pyrrolo[3,4-b]pyridin-7-one]"
7,1.8,O=C1c2nc(C3CC3)ccc2CN1c1ccc(N[C@H]2CC[C@H](Nc3ncc(OC(F)F)cn3)C2)nc1 [Example 141]
8,9,"O=C1c2cnccc2CN1c1ccc(N[C@H]2CC[C@H](Nc3ncc(OC(F)F)cn3)C2)nc1 [Example 75, 2-(6-(((1S,3S)-3-((5-(difluoromethoxy)pyrimidin-2-yl)amino)cyclopentyl)amino)pyridin-3-yl)-1,2-dihydro-3H-pyrrolo[3,4-c]pyridin-3-one]"
9,9.6,O=C1c2ncc(F)cc2CN1c1ccc(N[C@H]2CC[C@H](Nc3ncc(OC(F)F)cn3)C2)nc1 [Example 136]
10,2,"Cc1nc(N[C@H]2CC[C@H](Nc3ccc(N4Cc5cccnc5C4=O)cn3)C2)nc2ccccc12 [Example 131, 6-(6-(((1S,3S)-3-((4-methylquinazolin-2-yl)amino)cyclopentyl)amino)pyridin-3-yl)-5,6-dihydro-7H-pyrrolo[3,4-b]pyridin-7-one]"
11,10.5,"O=c1ccccn1-c1ccc(N[C@H]2CC[C@H](Nc3ncc(C4CC4)nn3)C2)nc1 [Example 63, 6′-(((1S,3S)-3-((6-cyclopropyl-1,2,4-triazin-3-yl)amino)cyclopentyl)amino)-2H-[1,3′-bipyridinyl]-2-one]"
